Measured values taken from patent US7304050B2, “Antibacterial agents” (Pfizer Inc., priority 2003, dated 2007).
Converted amounts (≈) assume the structure as drawn.

Experiments:
[1] = system: M. catarrhalis BC3534; experiment: Antibacterial assay (Test A), microtitration MIC, Gram negative; assay type: cell-based; conditions: Moraxella catarrhalis; Gram Negative Bacteria; strain BC3534; read-out: Minimum Inhibitory Concentrations M. catarrhalis BC3534
Protocol: (§1) The compounds of the present invention were tested against an assortment of Gram-negative and Gram-positive organisms using standard microtitration techniques (Cohen et. al., Antimicrob., 1985;28:766;Heifetz, et. al., Antimicrob., 1974;6: 124).

[2] = system: H. influenzae HI3542; experiment: as above; assay type: cell-based; conditions: Haemophilus influenzae; Gram Negative Bacteria; strain HI3542; read-out: Minimum Inhibitory Concentrations H. influenzae HI3542
Protocol: as §1

[3] = system: E. coli Tol C; experiment: as above; assay type: cell-based; conditions: Escherichia coli, read-out: Minimum Inhibitory Concentrations E. coli Tol C
Protocol: as §1

[4] = system: E. coli transcription and translation (TnT); assay type: biochemical
[5] = system: S pyogenes C203; experiment: Antibacterial assay (Test A), microtitration MIC, Gram positive; assay type: cell-based; conditions: Gram Positive Bacteria; strain C203; read-out: Minimum Inhibitory Concentrations S pyogenes C203
Protocol: as §1

[6] = system: S. aureus UC-76; experiment: as above; assay type: cell-based; conditions: Staphylococcus aureus, UC76; Gram Positive Bacteria; strain UC-76; read-out: Minimum Inhibitory Concentrations S. aureus UC-76
Protocol: as §1

[7] = system: E. faecalis MGH-2; experiment: as above; assay type: cell-based; conditions: Enterococcus faecalis, MGH2; Gram Positive Bacteria; strain MGH-2; read-out: Minimum Inhibitory Concentrations E. faecalis MGH-2
Protocol: as §1

Compound | MIC [1] | MIC [2] | MIC [3] | Inhibitory concentration in E. coli cell-free transcription/translation (TnT) assay [4] | MIC [5] | MIC [6] | MIC [7]
CC(=O)NC[C@H]1CN(c2ccc3c(c2)CCCN(c2c(F)cc4c(=O)c(C(=O)O)cn5c4c2OCC5C)C3)C(=O)O1 (stereo partly shown) [Example 5, 9-{7-[5-(Acetylamino-methyl)-2-oxo-oxazolidin-3-yl]-1,3,4,5-tetrahydro-benzo[c]azepin-2-yl}-8-fluoro-3-methyl-6-oxo-2,3-dihydro-6 H-1-oxa-3a-aza-phenalene-5-carboxylic Acid] | 2 µg/mL (≈ 3.54 µM) | 0.06 µg/mL (≈ 0.106 µM) | 8 µg/mL (≈ 14.2 µM) | 22.4 µg/mL | 8 µg/mL (≈ 14.2 µM) | 1 µg/mL (≈ 1.77 µM) | 32 µg/mL (≈ 56.7 µM)
COc1c(N2CCc3ccc(N4C[C@H](CNC(C)=O)OC4=O)cc3CC2)c(F)c(C)c2c(=O)c(C(=O)O)cn(C3CC3)c12 [Example 6, 7-{7-[5-(Acetylamino-methyl)-2-oxo-oxazolidin-3-yl]-1,2,4,5-tetrahydro-benzo[d]azepin-3-yl}-1-cyclopropyl-6-fluoro-8-methoxy-5-methyl-4-oxo-1,4-dihydro-quinoline-3-carboxylic Acid] | 0.13 µg/mL (≈ 0.219 µM) | 0.06 µg/mL (≈ 0.101 µM) | 2 µg/mL (≈ 3.37 µM) | 9.6 µg/mL | 0.25 µg/mL (≈ 0.422 µM) | 0.06 µg/mL (≈ 0.101 µM) | 0.25 µg/mL (≈ 0.422 µM)
COc1c(N2CCc3ccc(N4C[C@H](CNC(C)=O)OC4=O)cc3CC2)c(F)cc2c(=O)c(C(=O)O)cn(C3CC3)c12 [Example 7, 7-{7-[5-(Acetylamino-methyl)-2-oxo-oxazolidin-3-yl]-1,2,4,5-tetrahydro-benzo[d]azepin-3-yl}-1-cyclopropyl-6-fluoro-8-methoxy-4-oxo-1,4-dihydro-quinoline-3-carboxylic Acid] | 0.25 µg/mL (≈ 0.432 µM) | 0.06 µg/mL (≈ 0.104 µM) | 2 µg/mL (≈ 3.46 µM) | 11.8 µg/mL | 1 µg/mL (≈ 1.73 µM) | 0.06 µg/mL (≈ 0.104 µM) | 0.5 µg/mL (≈ 0.864 µM)
CC(=O)NC[C@H]1CN(c2ccc3c(c2)CCN(c2nc4c(cc2F)c(=O)c(C(=O)O)cn4-c2ccc(F)cc2F)CC3)C(=O)O1 [Example 8, 7-{7-[5-(Acetylamino-methyl)-2-oxo-oxazolidin-3-yl]-1,2,4,5-tetrahydro-benzo[d]azepin-3-yl}-1-(2,4-difluoro-phenyl)-6-fluoro-4-oxo-1,4-dihydro-[1,8]naphthyridine-3-carboxylic Acid] | 2 µg/mL (≈ 3.22 µM) | 0.06 µg/mL (≈ 0.0965 µM) | 2 µg/mL (≈ 3.22 µM) | 23.0 µg/mL | 8 µg/mL (≈ 12.9 µM) | 0.5 µg/mL (≈ 0.804 µM) | 16 µg/mL (≈ 25.7 µM)
CC(=O)NC[C@H]1CN(c2ccc3c(c2)CCN(c2cc4c(cc2F)c(=O)c(C(=O)O)cn4C2CC2)CC3)C(=O)O1 [Example 9, 7-{7-[5-(Acetylamino-methyl)-2-oxo-oxazolidin-3-yl]-1,2,4,5-tetrahydro-benzo[d]azepin-3-yl}-1-cyclopropyl-6-fluoro-4-oxo-1,4-dihydro-quinoline-3-carboxylic Acid] | 0.5 µg/mL (≈ 0.911 µM) | 0.06 µg/mL (≈ 0.109 µM) | 4 µg/mL (≈ 7.29 µM) | 13.0 µg/mL | 4 µg/mL (≈ 7.29 µM) | 0.13 µg/mL (≈ 0.237 µM) | 8 µg/mL (≈ 14.6 µM)
CC(=O)NC[C@H]1CN(c2ccc3c(c2)CCN(c2c(F)cc4c(=O)c(C(=O)O)cn(C5CC5)c4c2Cl)CC3)C(=O)O1 [Example 10, 7-{7-[5-(Acetylamino-methyl)-2-oxo-oxazolidin-3-yl]-1,2,4,5-tetrahydro-benzo[d]azepin-3-yl}-8-chloro-1-cyclopropyl-6-fluoro-4-oxo-1,4-dihydro-quinoline-3-carboxylic Acid] | 0.13 µg/mL (≈ 0.223 µM) | 0.06 µg/mL (≈ 0.103 µM) | 1 µg/mL (≈ 1.72 µM) | 5.4 µg/mL | 0.25 µg/mL (≈ 0.429 µM) | 0.06 µg/mL (≈ 0.103 µM) | 0.25 µg/mL (≈ 0.429 µM)
CC(=O)NC[C@H]1CN(c2ccc3c(c2)CCN(c2cc4c(c(C)c2F)c(=O)c(C(=O)O)cn4C2CC2)CC3)C(=O)O1 [Example 11, 7-{7-[5-(Acetylamino-methyl)-2-oxo-oxazolidin-3-yl]-1,2,4,5-tetrahydro-benzo[d]azepin-3-yl}-1-cyclopropyl-6-fluoro-5-methyl-4-oxo-1,4-dihydro-quinoline-3-carboxylic Acid] | 0.5 µg/mL (≈ 0.889 µM) | 0.06 µg/mL (≈ 0.107 µM) | 8 µg/mL (≈ 14.2 µM) | 10 µg/mL | 16 µg/mL (≈ 28.4 µM) | 0.06 µg/mL (≈ 0.107 µM) | 8 µg/mL (≈ 14.2 µM)
CCn1cc(C(=O)O)c(=O)c2cc(F)c(N3CCCc4cc(N5C[C@H](CNC(C)=O)OC5=O)ccc4C3)nc21 [Example 17, 7-{7-[5-(Acetylamino-methyl)-2-oxo-oxazolidin-3-yl]-1,3,4,5-tetrahydro-benzo[c]azepin-2-yl}-1-ethyl-6-fluoro-4-oxo-1,4-dihydro-[1,8]naphthyridine-3-carboxylic Acid] | 64 µg/mL (≈ 119 µM) | 0.5 µg/mL (≈ 0.93 µM) | 64 µg/mL (≈ 119 µM) | – | 64 µg/mL (≈ 119 µM) | 64 µg/mL (≈ 119 µM) | 64 µg/mL (≈ 119 µM)
